According to PMC6982966 (Molecules, 2019):
Read-outs that look alike come from different tables or passages of the source.

Columns and labels:
human CK2 holoenzyme [1] = biological target: T1, human CK2 holoenzyme (Homo sapiens, UniProt P68400); experiment: biochemical; settings: newly synthesized indeno[1,2-b]indoles
T1 construct: made in house; host or cells: Escherichia coli

human CK2 holoenzyme [2] = biological target: T1, human CK2 holoenzyme; settings: recombinant human CK2, compounds published before, cited from earlier work; for Tested pIC50: pIC50 = -logIC50
MCF-7 cells = experiment: MTT cell viability assay; type: cell-based, human; settings: for reduction of cell viability: after 24 h and 48 h
Experimental: The effect of the four naphtho[2,3-b]furan-4,9-dione derivatives on cell viability was evaluated using an MTT assay with MCF-7 cells (human breast adenocarcinoma cell line). […]. It is important to note that some compounds with a naphtho[2,3-b]furan-4,9-dione backbone are known to have anticancer effects and are highly cytotoxic, and other natural naphtho[2,3-b]furan-4,9-dione derivatives, which are found in the lapacho (Tabebuia) tree, are known to have different biological activities, such as antibacterial, antifungal, anti-inflammatory, and antitumor activities.
Bars represent the mean values of three measurements (n = 3). Error bars illustrate the corresponding standard deviations (± SD).
The effect of CK2 inhibitors on the viability of MCF-7 cells was evaluated using an MTT assay. MCF-7 breast cancer cells (kindly provided by the Department of Clinical Radiology of the University Hospital Muenster, Germany) were cultured in RPMI 1640 medium containing GlutaMax (Life Technologies, Darmstadt, Germany) and 10% fetal calf serum. The MTT assay was performed in 96-well plates. Cells were seeded at a density of 1 × 10^5 cells per well, then incubated […] at 37 °C in a humidified atmosphere (5% CO2). After overnight incubation, the seeding medium was removed and replaced with fresh medium containing the inhibitor at 0.01, 0.1, 1, and 10 μM. DMSO at a final concentration of 1% served as a control. Afterward, the MTT reagent (Sigma Aldrich, Darmstadt, Germany) was added at a final concentration of 0.5 mg/mL. After incubation for 2 h at 37 °C, the medium was discarded and 200 µL DMSO was added for the solubilization of the formazan. After mixing, the absorption was determined at 570 nm with a reference wavelength of 630 nm using a microplate reader. CK2 inhibitors were tested in triplicate, and the experiments were repeated three times.

[3] = Tested pIC50, recombinant human CK2, pIC50 = -logIC50
[4] = recombinant human CK2, read-out: Tested IC50
[5] = recombinant human CK2, pIC50 = -logIC50, read-out: Tested pIC50 (converted)
[6] = Tested IC50, recombinant human CK2

T1 sequence (P68400 whole entry): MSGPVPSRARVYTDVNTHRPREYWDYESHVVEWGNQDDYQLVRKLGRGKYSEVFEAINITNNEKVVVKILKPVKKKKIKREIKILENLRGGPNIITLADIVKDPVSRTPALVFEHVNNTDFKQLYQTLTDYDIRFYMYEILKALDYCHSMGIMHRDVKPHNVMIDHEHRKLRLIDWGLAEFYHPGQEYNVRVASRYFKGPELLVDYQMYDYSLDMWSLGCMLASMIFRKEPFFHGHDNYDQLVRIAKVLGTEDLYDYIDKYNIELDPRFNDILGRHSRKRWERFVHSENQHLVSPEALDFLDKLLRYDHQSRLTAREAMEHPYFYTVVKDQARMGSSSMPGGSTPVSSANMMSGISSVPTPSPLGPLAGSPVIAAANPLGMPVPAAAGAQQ
T1 sequence (P67870 whole entry partner): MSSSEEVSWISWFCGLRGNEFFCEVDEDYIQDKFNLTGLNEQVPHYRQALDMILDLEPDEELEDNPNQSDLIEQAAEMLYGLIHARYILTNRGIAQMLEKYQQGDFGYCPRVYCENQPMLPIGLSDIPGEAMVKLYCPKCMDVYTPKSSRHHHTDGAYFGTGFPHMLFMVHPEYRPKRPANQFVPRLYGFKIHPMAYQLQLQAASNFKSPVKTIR

## CC(C)n1c2c(c3c1-c1cc(OCCCC(=O)O)ccc1C3=O)C(=O)CCC2 [4s]
Human CK2 holoenzyme [1]; [3]
  IC50: 1.51 µM

## O=C1c2ccccc2-c2[nH]c3cccc(O)c3c21 [5a]
Human CK2 holoenzyme [1]; [4]
  IC50: 2.22 µM
Human CK2 holoenzyme [1]; [5]
  IC50: 2.22 µM

## Cc1cccc2c1C(=O)c1c3c(n(C(C)C)c1-2)CCCC3=O [4h, 5-isopropyl-1-methyl-5,6,7,8-tetrahydroindeno[1,2-b]indole-9,10-dione]
other
  melting point: 235 °C
Human CK2 holoenzyme [1]; [3]
  IC50: 0.11 µM

## CC(=O)Oc1ccc2c(c1)-c1c(c3c(n1C(C)C)CCCC3=O)C2=O [4q]
Human CK2 holoenzyme [1]; [6]
  IC50: 3.21 µM
Human CK2 holoenzyme [1]; [3]
  IC50: 3.21 µM

## COc1cccc2c(=O)c3c4c(=O)ccc(=O)c4n(C(C)C)c3c12 [6f]
Human CK2 holoenzyme [1]; [4]
  IC50: 0.87 µM
Human CK2 holoenzyme [1]; [5]
  IC50: 0.871 µM

## Cc1cc(=O)c2c3c(=O)c4ccccc4c3n(C(C)C)c2c1=O [6g]
Human CK2 holoenzyme [2]
  Tested pIC50: 6.3660

## CC(C)n1c2c(=O)ccc(=O)c2c2c(=O)c3c(Br)cccc3c21 [6d]
Human CK2 holoenzyme [1]; [4]
  IC50: 1.35 µM
Human CK2 holoenzyme [1]; [5]
  IC50: 1.35 µM

## CC(C)n1c2c(c3c1-c1cccc(C(F)(F)F)c1C3=O)C(=O)CCC2 [4i]
Human CK2 holoenzyme [1]; [3]
  IC50: 0.21 µM

## CCn1c2c(=O)ccc(=O)c2c2c(=O)c3ccccc3c21 [6c]
Human CK2 holoenzyme [1]; [4]
  IC50: 1.58 µM

## COc1ccc2c(=O)c3c4c(=O)ccc(=O)c4n(C(C)C)c3c2c1 [6e]
Human CK2 holoenzyme [1]; [6]
  IC50: 4.16 µM
Human CK2 holoenzyme [1]; [3]
  IC50: 4.16 µM

## Cc1oc2c(c1C(=O)NCc1cccnc1)C(=O)c1ccccc1C2=O [compound 37867960, 2-methyl-4,9-dioxo-N-(pyridin-3-ylmethyl)-4,9-dihydronaphtho[2,3-b]furan-3-carboxamide]
MCF-7 cells; MCF-7, 1 µM
  reduction of cell viability: around 90%
MCF-7 cells; MCF-7, 10 µM
  reduction of cell viability: more than 90%

## CC(C)n1c2c(c3c1-c1cc(Br)cc(Br)c1C3=O)C(=O)CCC2 [4w, 1,3-dibromo-5-isopropyl-5,6,7,8-tetrahydroindeno[1,2-b]indole-9,10-dione]
other
  melting point: 276 °C
Human CK2 holoenzyme [1]; [3]
  IC50: 0.11 µM

## COC(=O)CCCOc1ccc2c(c1)-c1c(c3c(n1C(C)C)CCCC3=O)C2=O [4r]
Human CK2 holoenzyme [1]; [3]
  IC50: 0.52 µM

## COC(=O)COc1ccc2c(c1)-c1c(c3c(n1C(C)C)CCCC3=O)C2=O [4p]
Human CK2 holoenzyme [1]; [6]
  IC50: 1.52 µM
Human CK2 holoenzyme [1]; [3]
  IC50: 1.52 µM

## O=c1ccc(=O)c2c1[nH]c1c3ccccc3c(=O)c12 [6a]
Human CK2 holoenzyme [1]; [4]
  IC50: 1.78 µM
Human CK2 holoenzyme [1]; [5]
  IC50: 1.78 µM

## Cc1oc2c(c1C(=O)NCCCn1ccnc1)C(=O)c1ccccc1C2=O [compound 01893208, 1-(3-(2-methyl-4,9-dioxo-4,9-dihydronaphtho[2,3-b]furan-3-carboxamido)propyl)-1H-imidazol-3-ium]
MCF-7 cells; MCF-7, 1 µM
  reduction of cell viability: around 90%
MCF-7 cells; MCF-7, 10 µM
  reduction of cell viability: more than 90%

## Cc1oc2c(c1C(=O)N1CCOCC1)C(=O)c1ccccc1C2=O [compound 01236034, 2-methyl-3(morpholine-4-carbonyl)naphto[2,3-b] furan-4,9-dione]
MCF-7 cells; MCF-7, 10 µM, after 48 h
  cell viability reduced to: 60%

## CC(C)C1CC(=O)c2c3c(n(C(C)C)c2C1)-c1ccccc1C3=O (centres unmarked) [4y]
Human CK2 holoenzyme [2]
  Tested pIC50: 6.2150

## COc1ccccc1CCn1c2c(c3c1-c1ccccc1C3=O)C(=O)CCC2 [4e]
Human CK2 holoenzyme [2]; read-out: Tested IC50
  IC50: 1.4 µM
Human CK2 holoenzyme [2]
  Tested pIC50: 5.8540

## Cn1c2c(=O)ccc(=O)c2c2c(=O)c3ccccc3c21 [6b]
Human CK2 holoenzyme [1]; [6]
  IC50: 1.12 µM
Human CK2 holoenzyme [1]; [3]
  IC50: 1.12 µM

## Cc1oc2c(c1C(=O)NCCC(C)C)C(=O)c1ccccc1C2=O [compound 00082235, N-isopentyl-2-methyl-4,9-dioxo-4,9-dihydronaphtho[2,3-b]furan-3-carboxamide]
MCF-7 cells; MCF-7, 10 µM
  reduction of cell viability: more than 90%

## CC(C)n1c2c(c3c1-c1cccc(Br)c1C3=O)C(=O)CCC2 [4j]
Human CK2 holoenzyme [1]; [3]
  IC50: 0.14 µM
